Data as given in PMC8457749, “Design, Synthesis, and Anticancer Activity Evaluation of Hybrids of Azoles and Barbituric Acids” (Iranian Journal of Pharmaceutical Research : IJPR, 2021).
Where two headings read alike, the source gives them in different places.

Key:
[1] = tested on: HCT-116 cells; experiment: MTT antiproliferative assay, HCT-116; type: cell-based, human; conditions: for inhibition at 100 µM / IC50: Homo sapiens; for inhibition at 100 µM: read-out: Growth Inhibition at 100 μM (%) HCT-116; for IC50: read-out: IC50 HCT-116
Description: (§1) The antiproliferative activity of the target compounds against the panel of three different human cancer cell lines, liver (BEL-7402), colorectal (HCT-116), and breast (MCF-7) cell lines was evaluated using a standard MTT-based colorimetric assay. All cell lines were obtained from the Key Laboratory of Natural Resources and Functional Molecules of the Changbai Mountain (Yanbian University) and maintained in Dulbecco’s modified Eagle’s medium (DMEM) and RPMI Media 1640 (RPMI1640), supplemented with 10% foetal bovine serum (FBS) at 37 °C in a humidified atmosphere containing 5% CO2.
(§2) The cells were plated in 96-well plates at appropriate densities to ensure exponential growth throughout the experimental period (9 × 10^3 cells per well) and then allowed to adhere for 24 h. the cells were then treated for 48 h with each compound. After 48 h of incubation, 10 μL of MTT solution was added to each well to a final concentration of 2 mg/mL. the plates were then incubated for a further 4 h. After incubation, the MTT solution was removed and 150 μL of DMSO was added to each well for coloration. The plates were shaken vigorously for 10 min at room temperature to ensure complete solubilisation. The optometric density (OD) was read on a microplate reader (EL × 800, BioTek, Highland Park, Winooski, VT, USA) at 492 nm, and the data were subsequently analysed. The percentage of cell growth inhibition was calculated from the following Equation:
(§3) Inhibitory rate (%) = [1 − (ODtreated − ODblank)/(ODcontrol − ODblank)] × 100%
(§4) To obtain the antiproliferative activity of compounds 3a-3s and 4a-4d, the compounds were selected in the same way with four serial concentrations (1, 10, 50 and 100 μM) of those compounds. The optometric density (OD) reading was then used to calculate the IC50.

[2] = tested on: L02 cells; experiment: Antiproliferative activity against normal cell line L02; type: cell-based; conditions: Homo sapiens, L02, read-out: L02 IC50
Description: The lack of selective cytotoxicity is the main factor that restricts the dose of most conventional chemotherapeutic agents ([21]). […] Selectivity indexes between cancer cells and L02 cells were calculated.

[3] = tested on: BEL-7402 cells; experiment: MTT antiproliferative assay, BEL-7402; type: cell-based, human; conditions: for inhibition at 100 µM / IC50: Homo sapiens; for inhibition at 100 µM: read-out: Growth Inhibition at 100 μM (%) BEL-7402; for IC50: read-out: IC50 BEL-7402; for Selectivity index BEL-7402: IC50 on normal cells (L02)/IC50 on tumor cells (BEL-7402)
Description: as §1, §2, §3, §4

[4] = tested on: MCF-7 cells; experiment: MTT antiproliferative assay, MCF-7; type: cell-based, human; conditions: Homo sapiens, MCF7, 48 h; for inhibition at 100 µM: read-out: Growth Inhibition at 100 μM (%) MCF-7; for IC50: read-out: IC50 MCF-7
Description: as §1, §2, §3, §4

| Compound | inhibition at 100 µM ([1]; HCT-116, 48 h) [%] | IC50 ([1]; HCT-116, 48 h) [µM] | melting point [°C] | IC50 [2] [µM] | inhibition at 100 µM ([3]; Bel-7402, 48 h) [%] | IC50 ([3]; Bel-7402, 48 h) [µM] | Selectivity index BEL-7402 [3] | inhibition at 100 µM [4] [%] | IC50 [4] [µM] | Selectivity index HCT-116 ([1]; IC50 on normal cells (L02)/IC50 on tumor cells (HCT-116)) | IC50 ([1]; HCT-116, 48 h, MTT) [µM] | IC50 ([3]; Bel-7402, 48 h, MTT) [µM] |
| --- | --- | --- | --- | --- | --- | --- | --- | --- | --- | --- | --- | --- |
| O=C1NC(=O)C(=Cc2cn(-c3cccc(F)c3)nn2)C(=O)N1 [Compound 3c, 5-((1-(3-fluorophenyl)-1H-1,2,3-triazol-4-yl)methylene)pyrimidine-2,4,6(1H,3H,5H)-trione] | 48.4 ± 2.3 | > 100 | 250 | 82.3 ± 4 | 79 ± 3.9 | 12.2 ± 0.91 | 6.74 | 34.6 ± 1.8 | > 100 |  |  |  |
| COc1ccccc1-n1cc(C=C2C(=O)NC(=O)NC2=O)nn1 [Compound 3m, 5-((1-(2-methoxyphenyl)-1H-1,2,3-triazol-4-yl)methylene)pyrimidine-2,4,6(1H,3H,5H)-trione] | 44.2 ± 3.4 |  | 250 |  | 25.6 ± 2.1 |  |  | 7.9 ± 1.1 |  |  |  |  |
| O=C1NC(=O)C(=Cc2cn(Cc3ccccc3)c3ccccc23)C(=O)N1 [A, 5-((1-benzyl-1H-indol-3-yl)methylene)pyrimidine-2,4,6 (1H,3H,5H)-trione, reference compound] | 26.2 ± 1.8 |  |  |  | 19.6 ± 2.1 |  |  | 11.8 ± 1 |  |  |  |  |
| Cc1nn(-c2cccc(Cl)c2)c(C)c1C=C1C(=O)NC(=O)NC1=O [Compound 4c, 5-((1-(3-chlorophenyl)-3,5-dimethyl-1H-pyrazol-4-yl)methylene)pyrimidine-2,4,6(1H,3H,5H)-trione] | 58.7 ± 5.2 | 47.5 ± 3.21 | 250 |  | 64 ± 2.1 | 48.2 ± 0.78 |  | 15.5 ± 1.1 | > 100 |  |  |  |
| Cc1ccc(-n2nc(C)c(C=C3C(=O)NC(=O)NC3=O)c2C)cc1 [Compound 4d, 5-((3,5-dimethyl-1-p-tolyl-1H-pyrazol-4-yl)methylene)pyrimidine-2,4,6(1H,3H,5H)-trione] | 28.4 ± 3 |  | 250 |  | 38.1 ± 1.3 |  |  | < 5 |  |  |  |  |
| COc1cccc(-n2cc(C=C3C(=O)NC(=O)NC3=O)nn2)c1 [Compound 3n, 5-((1-(3-methoxyphenyl)-1H-1,2,3-triazol-4-yl)methylene)pyrimidine-2,4,6(1H,3H,5H)-trione] | 67.1 ± 5.6 | 30.7 ± 2.1 | 250 |  | 36.7 ± 19 | > 100 |  | 23.3 ± 3.5 | > 100 |  |  |  |
| O=C1NC(=O)C(=Cc2cn(-c3ccc(Cl)c(Cl)c3)nn2)C(=O)N1 [Compound 3i, 5-((1-(3,4-dichlorophenyl)-1H-1,2,3-triazol-4-yl)methylene)pyrimidine-2,4,6(1H,3H,5H)-trione] | 69.3 ± 2.9 | 55.2 ± 2.31 | 250 |  | 47.2 ± 4.7 | > 100 |  | 14.2 ± 1.5 | > 100 |  |  |  |
| Cc1nn(-c2ccccc2)c(C)c1C=C1C(=O)NC(=O)NC1=O [Compound 4a, 5-((3,5-dimethyl-1-phenyl-1H-pyrazol-4-yl)methylene)pyrimidine-2,4,6(1H,3H,5H)-trione] | 30.9 ± 3.1 |  | 250 |  | 38.7 ± 1 |  |  | < 5 |  |  |  |  |
| O=C1NC(=O)C(=Cc2cn(-c3ccccc3F)nn2)C(=O)N1 [Compound 3b, 5-((1-(2-fluorophenyl)-1H-1,2,3-triazol-4-yl)methylene)pyrimidine-2,4,6(1H,3H,5H)-trione] | 67.6 ± 3.8 | 78.2 ± 2.34 | 250 |  | 34.1 ± 4.3 | > 100 |  | 27.5 ± 1.6 | > 100 |  |  |  |
| Cc1ccc(-n2cc(C=C3C(=O)NC(=O)NC3=O)nn2)cc1 [Compound 3r, 5-((1-p-tolyl-1H-1,2,3-triazol-4-yl)methylene)pyrimidine-2,4,6(1H,3H,5H)-trione] | 52.5 ± 2 |  | 250 |  | 39.8 ± 3.1 |  |  | < 5 |  |  |  |  |
| O=C1NC(=O)C(=Cc2cn(-c3ccc(F)cc3)nn2)C(=O)N1 [Compound 3d, 5-((1-(4-fluorophenyl)-1H-1,2,3-triazol-4-yl)methylene)pyrimidine-2,4,6(1H,3H,5H)-trione] | 31.6 ± 1.9 |  | 250 |  | 31.9 ± 2.8 |  |  | 34.1 ± 2.3 |  |  |  |  |
| O=C1NC(=O)C(=Cc2cn(-c3cccc(Br)c3)nn2)C(=O)N1 [Compound 3k, 5-((1-(3-bromophenyl)-1H-1,2,3-triazol-4-yl)methylene)pyrimidine-2,4,6(1H,3H,5H)-trione] | 88.9 ± 3.1 | 19.4 ± 1.67 | 250 | 66.4 ± 5.1 | 81.6 ± 3.6 | 19.2 ± 1.8 | 3.46 | 31.7 ± 2.8 | > 100 | 3.42 |  |  |
| COc1ccc(-n2cc(C=C3C(=O)NC(=O)NC3=O)nn2)cc1OC [Compound 3p, 5-((1-(3,4-dimethoxyphenyl)-1H-1,2,3-triazol-4-yl)methylene)pyrimidine-2,4,6(1H,3H,5H)-trione] | 43.9 ± 2.9 |  | 250 |  | 38 ± 1.9 |  |  | 18.6 ± 1.7 |  |  |  |  |
| Cc1nn(-c2cccc(F)c2)c(C)c1C=C1C(=O)NC(=O)NC1=O [Compound 4b, 5-((1-(3-fluorophenyl)-3,5-dimethyl-1H-pyrazol-4-yl)methylene)pyrimidine-2,4,6(1H,3H,5H)-trione] | 9.1 ± 1.2 |  | 250 |  | 14.7 ± 1.2 |  |  | < 5 |  |  |  |  |
| O=C1CC(=O)NC(=O)N1 [Barbituric acid] | 14.3 ± 2.2 | > 100 |  |  | 11.7 ± 1 | > 100 |  | < 5 | > 100 |  |  |  |
| COc1ccc(-n2cc(C=C3C(=O)NC(=O)NC3=O)nn2)cc1 [Compound 3o, 5-((1-(4-methoxyphenyl)-1H-1,2,3-triazol-4-yl)methylene)pyrimidine-2,4,6(1H,3H,5H)-trione] | 7.9 ± 0.6 |  | 250 |  | 28.4 ± 3.1 |  |  | 22.6 ± 2.7 |  |  |  |  |
| O=C1NC(=O)C(=Cc2cn(-c3ccccc3Cl)nn2)C(=O)N1 [Compound 3e, 5-((1-(2-chlorophenyl)-1H-1,2,3-triazol-4-yl)methylene)pyrimidine-2,4,6(1H,3H,5H)-trione] | 14.8 ± 0.9 |  | 250 |  | 39.6 ± 4.1 |  |  | 19.8 ± 1.5 |  |  |  |  |
| Cc1cccc(-n2cc(C=C3C(=O)NC(=O)NC3=O)nn2)c1 [Compound 3q, 5-((1-m-tolyl-1H-1,2,3-triazol-4-yl)methylene)pyrimidine-2,4,6(1H,3H,5H)-trione] | 94.8 ± 6.3 | 32.8 ± 1.9 | 250 |  | 23.7 ± 2.1 | > 100 |  | 91.9 ± 2.4 | 29.8 ± 2.01 |  |  |  |
| O=C1NC(=O)C(=Cc2cn(-c3ccccc3Br)nn2)C(=O)N1 [Compound 3j, 5-((1-(2-bromophenyl)-1H-1,2,3-triazol-4-yl)methylene)pyrimidine-2,4,6(1H,3H,5H)-trione] | 46.3 ± 3.4 |  | 250 |  | 36.8 ± 2.1 |  |  | 42.7 ± 2.6 |  |  |  |  |
| O=c1[nH]cc(F)c(=O)[nH]1 [Compound 5-FU, 5-fluorouracil, reference compound] |  |  |  |  |  |  |  |  |  |  | 24.8 ± 0.78 | 21.3 ± 0.56 |
| O=C1NC(=O)C(=Cc2cn(-c3ccc(Br)cc3)nn2)C(=O)N1 [Compound 3l, 5-((1-(4-bromophenyl)-1H-1,2,3-triazol-4-yl)methylene)pyrimidine-2,4,6(1H,3H,5H)-trione] | 49.8 ± 3.8 |  | 250 |  | 44.8 ± 3.8 |  |  | < 5 |  |  |  |  |
| O=C1NC(=O)C(=Cc2cn(-c3ccccc3)nn2)C(=O)N1 [Compound 3a, 5((1-phenyl-1H-1,2,3-triazol-4-yl)methylene)pyrimidine-2,4,6(1H,3H,5H)-trione] | 42.7 ± 2.5 |  | 250 |  | 54 ± 3.4 |  |  | 30.9 ± 2.6 |  |  |  |  |
